Reference: patent publication US20240327756A1, “METAL COMPLEXES, AND D[…] CONTAINING SAME” (HENKEL AG & CO. KGAA, priority 2021, published 2024)

Biological target: bovine serum albumin (BSA) (Bos taurus, UniProt P02769)
Details: BSA 0.02 mM, complex 2 mM, 60° C., pH 9, 24 h incubation; reference without complex = 1.0
Description: The hydrolysis of protein dirt was investigated using degradation of bovine serum albumin (BSA). […] The incubated material was then examined with the known method of SDS-PAGE with regard to the intensity of the band to be assigned to BSA. BSA incubated under the same conditions without the addition of complexes served as reference. The intensity values given in the following table are relative values based on the intensity of the band of the reference at t=24 h.

Sequence of bovine serum albumin (BSA) (P02769 25-607): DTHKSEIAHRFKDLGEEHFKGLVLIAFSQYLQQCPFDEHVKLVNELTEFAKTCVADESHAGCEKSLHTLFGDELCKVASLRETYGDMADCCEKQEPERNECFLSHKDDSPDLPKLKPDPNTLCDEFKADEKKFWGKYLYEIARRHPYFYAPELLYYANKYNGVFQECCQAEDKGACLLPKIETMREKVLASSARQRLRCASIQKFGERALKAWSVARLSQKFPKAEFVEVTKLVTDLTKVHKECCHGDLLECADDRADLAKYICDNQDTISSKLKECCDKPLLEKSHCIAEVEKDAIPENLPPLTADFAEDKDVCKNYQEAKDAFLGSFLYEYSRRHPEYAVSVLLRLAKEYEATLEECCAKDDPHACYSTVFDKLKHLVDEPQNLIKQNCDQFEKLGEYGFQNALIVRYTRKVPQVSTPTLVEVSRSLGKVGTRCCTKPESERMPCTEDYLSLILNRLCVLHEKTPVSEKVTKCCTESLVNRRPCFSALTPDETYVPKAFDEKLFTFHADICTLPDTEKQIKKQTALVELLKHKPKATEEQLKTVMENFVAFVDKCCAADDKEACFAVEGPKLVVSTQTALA

In the case of “Sc (III) Complex of 1,7-dioxa-4,10-diazacyclododecane-4,10-di(methyl(phenol)) [complex P1]”, the “Intensity (of the SDS-PAGE band assigned to BSA, relative to the reference band at t=24 h)” value is reported as 0.84.
